{
  "source": "patent US6818780B2",
  "about": "“P-hydroxyphenyl propionic acid derivatives as antiproliferative agents” (Consejo Superior de Investigaciones Cientificas, priority 2000, dated 2004)",
  "key": {"[1]": {"tested_on": "murine splenocytes", "experiment": "Test of lymphocyte proliferation: proliferation of murine splenocytes (tritiated thymidine incorporation)", "assay_type": "cell-based, Bal b/c mice", "conditions": "for Proliferation of murine splenocytes, mitogen Con A 2.5 μg/ml (cpm ± DS) / Proliferation of murine splenocytes, mitogen LPS 10 μg/ml (cpm ± DS) / Proliferation of murine splenocytes, mitogen PHA 50 μg/ml (cpm ± DS) / Proliferation of murine splenocytes, mitogen a CD3 20 μg/ml (cpm ± DS): 72 h incubation", "description": "Proliferation of Murine Splenocytes. Material and Methods\nTest of Lymphocyte Proliferation\nCulture medium: DMEM+penicillin 50 UI/ml+streptomycin 50 µg/ml+glutamine 2 mM+10% foetal calf serum (complete medium) (FLOW).\nBal b/c mice were used, male, aged 6-8 weeks (IFFA-CREDO).\nThe cell “pellet” is resuspended in complete medium at a concentration of 4×10^6 cells/ml\nIn a dish with 96 flat-bottom wells, seriated dilutions are made of the mitogen problem sample with or without “lactone” in a volume of […] in complete medium to which […] 2ME have been added. All the determinations are made in triplicate.\n100 μl of the cell suspension are then added, leaving a final volume of 200 μl.\nThe dish is incubated in a stove at 37° C., 5% CO2 for 66 h.\nFollowing that incubation period, 1 μCi of tritiated thymidine is added to each well.\nThe dish is again incubated for 6 h.\nOnce that new incubation period has ended, the dish is processed in a Skatron Harvester, using special Wathman filter paper for this.\nThe cpm are determined in a liquid scintillation counter.\nNegative control: cells in the presence of complete culture medium.\nPositive control: cells in the presence of some mitogen.\nArithmetic mean of cpm±standard deviation (1)\nThe statistical significance is determined by the Student t method.\nThe results are summarised in the following tables (the cpm are stated following a pulse of tritiated thymidine. The samples of splenocytes were cultivated for 72 h in the presence of mitogen and lactone at the stated concentrations)."}, "[2]": {"tested_on": "murine splenocytes", "experiment": "Test of lymphocyte proliferation: proliferation of murine splenocytes (tritiated thymidine incorporation)", "assay_type": "cell-based, Bal b/c mice", "conditions": "range 100-0.75 μg/ml"}, "[3]": {"conditions": "murine splenocytes, 72 h with mitogen and lactone"}},
  "data": [
    {"smiles": "C=C1C(=O)OC(CCc2ccc(OC)cc2)C1C", "note": "(stereo not drawn) [lactone]", "values": [
      {"measurement": "Proliferation of murine splenocytes, mitogen Con A 2.5 μg/ml (cpm ± DS)", "setting": "[1]; Lactone 0.75 μg/ml", "result": "131,523 cpm"},
      {"measurement": "Proliferation of murine splenocytes, mitogen Con A 2.5 μg/ml (cpm ± DS)", "setting": "[1]; Lactone 1.5 μg/ml", "result": "150,400 cpm"},
      {"measurement": "Proliferation of murine splenocytes, mitogen Con A 2.5 μg/ml (cpm ± DS)", "setting": "[1]; Lactone 3 μg/ml", "result": "92,600 ± 100 cpm"},
      {"measurement": "Proliferation of murine splenocytes, mitogen Con A 2.5 μg/ml (cpm ± DS)", "setting": "[1]; Lactone 6 μg/ml", "result": "78,200 ± 725 cpm"},
      {"measurement": "Proliferation of murine splenocytes, mitogen Con A 2.5 μg/ml (cpm ± DS)", "setting": "[1]; Lactone 12 μg/ml", "result": "370 ± 20", "unit": "cpm"},
      {"measurement": "Proliferation of murine splenocytes, mitogen Con A 2.5 μg/ml (cpm ± DS)", "setting": "[1]; Lactone 25 μg/ml", "result": "244 ± 15", "unit": "cpm"},
      {"measurement": "Proliferation of murine splenocytes, mitogen LPS 10 μg/ml (cpm ± DS)", "setting": "[1]; Lactone 25 μg/ml", "result": "3,200 ± 400 cpm"},
      {"measurement": "Proliferation of murine splenocytes, mitogen PHA 50 μg/ml (cpm ± DS)", "setting": "[1]; Lactone 25 μg/ml", "result": "21,000 cpm"},
      {"measurement": "Proliferation of murine splenocytes, mitogen a CD3 20 μg/ml (cpm ± DS)", "setting": "[1]; Lactone 25 μg/ml", "result": "5,600 ± 300 cpm"},
      {"measurement": "Proliferation of murine splenocytes, mitogen Con A 2.5 μg/ml (cpm ± DS)", "setting": "[1]; Lactone 50 μg/ml", "result": "190 ± 10", "unit": "cpm"},
      {"measurement": "Proliferation of murine splenocytes, mitogen LPS 10 μg/ml (cpm ± DS)", "setting": "[1]; Lactone 50 μg/ml", "result": "2,700 ± 120 cpm"},
      {"measurement": "Proliferation of murine splenocytes, mitogen PHA 50 μg/ml (cpm ± DS)", "setting": "[1]; Lactone 50 μg/ml", "result": "19,000 cpm"},
      {"measurement": "Proliferation of murine splenocytes, mitogen a CD3 20 μg/ml (cpm ± DS)", "setting": "[1]; Lactone 50 μg/ml", "result": "1,235 ± 200 cpm"},
      {"measurement": "Proliferation of murine splenocytes, mitogen Con A 2.5 μg/ml (cpm ± DS)", "setting": "[1]; Lactone 100 μg/ml", "result": "147 ± 10", "unit": "cpm"},
      {"measurement": "Proliferation of murine splenocytes, mitogen LPS 10 μg/ml (cpm ± DS)", "setting": "[1]; Lactone 100 μg/ml", "result": "614 ± 35", "unit": "cpm"},
      {"measurement": "Proliferation of murine splenocytes, mitogen PHA 50 μg/ml (cpm ± DS)", "setting": "[1]; Lactone 100 μg/ml", "result": "19,500 cpm"},
      {"measurement": "Proliferation of murine splenocytes, mitogen a CD3 20 μg/ml (cpm ± DS)", "setting": "[1]; Lactone 100 μg/ml", "result": "285 ± 20", "unit": "cpm"},
      {"measurement": "Inhibition of proliferation induced by ConA, antiCD3 and LPS", "setting": "[1]; [3]", "result": "clearly demonstrated its capacity for inhibiting proliferation"},
      {"measurement": "Inhibition of proliferation induced by PHA", "setting": "[1]; [3]", "result": "but not that induced by PHA"},
      {"measurement": "Proliferative effect per se on murine splenocytes", "setting": "[1]; no mitogen, range 100-0.75 μg/ml, sample dissolved in DMSO at 40.0 mg/ml", "result": "No effect"},
      {"measurement": "Cytotoxicity effects on murine splenocytes", "setting": "[2]", "result": "Nor was are cytotoxicity effects found"}
    ]}
  ]
}
